Results as given in paper PMC9026428, “New Peptide Based Fluconazole Conjugates with Expanded Molecular Targets” (Pharmaceutics, 2022).

Key:
Candida albicans 138 = assay: microbe, parasite or virus in culture; details: Candida albicans, 138, 24 h
Procedure: (§1) The assessment of antifungal potential of synthesized agents was carried out using four reference strains (C. albicans ATCC 10231, C. albicans SC5314, C. glabrata DSM […] and C. krusei DSM […]) and six clinical isolates of fluconazole-resistant C. albicans that were provided by the Hospital of Medical University of Gdansk, Poland. Moreover, four C. albicans isolates, assigned as B3, B4, Gu4 and Gu5, were used for investigation whether the synthesized fluconazole derivatives were effectively removed from the yeast cells by the drug efflux transporters, as in the case of fluconazole. These strains were kindly provided by Prof. Joachim Morschhäuser from University of Würzburg (Würzburg, Germany). Strains Gu4 and B3 were fluconazole-sensitive isolates obtained from early infection episodes, while Gu5 and B4 were the corresponding fluconazole-resistant isolates obtained from later episodes in the same patients treated with fluconazole. The lack of susceptibility of the Gu5 strain to fluconazole was a consequence of overexpression of CDR1/2 genes encoding ABC transporters, whereas the resistance of B4 strain was caused by overexpression of the MDR1 gene encoding a membrane transport protein of the major facilitator superfamily (MFS). All of these Candida spp. strains were maintained on YPD agar plates (1% (w/v) yeast extract, 2% (w/v) peptone, 2% (w/v) glucose, 2% (w/v) agar) at 30 °C for 16–24 h. For all of the assays aimed at assessing the antifungal potential of the synthesized agents, the yeasts were cultivated at 37 °C in RPMI 1640 medium (with L-glutamine, without sodium bicarbonate, Sigma-Aldrich, Darmstadt, Germany)) buffered to a pH of 7.0 with 0.165 M morpholinepropanesulfonic acid (MOPS) buffer (Sigma-Aldrich). In this study, we used the human foreskin fibroblast cell line Hs27 (ATCC CRL 1634TM) and the human endothelial cell line HUVEC (C2519A), purchased from Lonza Group AG, (Basel, Switzerland). The Hs27 cells were maintained in cell media consisting of Dulbecco’s modified Eagles medium (DMEM), (Corning, Arizona, USA) with 10% fetal bovine serum (FBS), (Corning, Port Elizabeth, South Africa), 1% penicillin/streptomycin (Sigma-Aldrich Inc., Darmstadt, Germany), and 1% L-glutamine (Corning, Arizona, USA). The human endothelial cell line was maintained in cell media consisting of Endothelial Cell Growth Medium-2 Single Quots Kit (Lonza, USA). Both cell lines were cultured in an incubator at 37 °C and 5% CO2.
(§2) Antifungal activity of the tested compounds against yeast cells was determined in 96-well plates as described in the CLSI document M27-A3 [39], with minor modifications (CLSI, 2008). […] The plates were incubated for 24 h at 37 °C. Each test was performed in triplicate. The final concentration of DMSO was ensured to be around 1% in all experiments.
(§3) For determination of minimum fungicidal concentrations (MFC), small aliquots of suspensions (around 10 μL) from each well were transferred using the pipette to YPD agar plates without inhibitors and incubated for 24 h at 37 °C.

Candida albicans 190 = assay: microbe, parasite or virus in culture; details: Candida albicans, 190, 24 h
Procedure: as §1, §2, §3

Candida albicans 247 = assay: microbe, parasite or virus in culture; details: Candida albicans, 247, 24 h
Procedure: as §1, §2, §3

Candida albicans 48 = assay: microbe, parasite or virus in culture; details: Candida albicans, 48, 24 h
Procedure: as §1, §2, §3

Candida albicans 574 = assay: microbe, parasite or virus in culture; details: Candida albicans, 574, 24 h
Procedure: as §1, §2, §3

Candida albicans 604 = assay: microbe, parasite or virus in culture; details: Candida albicans, 604, 24 h
Procedure: as §1, §2, §3

[1] = tested on: Candida albicans ATCC 10231; assay: microbe, parasite or virus in culture; details: Candida albicans, ATCC10231, 24 h; for MIC50 / MIC90: pH 7
Procedure: as §1, §2, §3

Candida albicans B3 = assay: microbe, parasite or virus in culture; details: Candida albicans, B3, 24 h
Procedure: as §1, §2, §3

Candida albicans B4 = assay: microbe, parasite or virus in culture; details: Candida albicans, B4, 24 h
Procedure: as §1, §2, §3

Candida albicans Gu4 = assay: microbe, parasite or virus in culture; details: Candida albicans, GU4, 24 h
Procedure: as §1, §2, §3

Candida albicans Gu5 = assay: microbe, parasite or virus in culture; details: Candida albicans, GU5, 24 h
Procedure: as §1, §2, §3

Candida albicans SC 5314 = assay: microbe, parasite or virus in culture; details: Candida albicans, SC5314, 24 h; for MIC50 / MIC90: pH 7
Procedure: as §1, §2, §3

[2] = tested on: Candida glabrata DSM 6128; assay: microbe, parasite or virus in culture; details: Nakaseomyces glabratus, DSM6128, 24 h; for MIC50 / MIC90: pH 7
Procedure: as §1, §2, §3

Candida krusei DSM 11226 = assay: microbe, parasite or virus in culture; details: Pichia kudriavzevii, DSM11226, 24 h; for MIC50 / MIC90: pH 7
Procedure: as §1, §2, §3

[3] = tested on: Candida spp. strains tested; assay: Antifungal activity against the whole panel of strains tested; format: cell-based; details: Candida; all strains of Table 2
Procedure: Antifungal activity of the tested compounds against yeast cells was determined in 96-well plates as described in the CLSI document M27-A3 [39], with minor modifications (CLSI, 2008). Suspensions of the microorganisms were prepared by taking one loop of pure culture into sterile water and adjusting optical density to 0.1 at 660 nm wavelength and further 50-fold dilution in RPMI 1640 medium, resulting in cell concentration of approximately 2 × 10^4 CFU/mL [21]. Then, 100 μL of cells were added to the wells of a 96-well microtiter plate that contained 16–500 μM tested compounds and 16–500 μM of FLC or 0.2–62 μM AmB. The plates were incubated for 24 h at 37 °C. Each test was performed in triplicate. […] The MIC90 was defined as the lowest concentration of drug showing no visible growth; MIC50 was defined as the concentration that yielded at least 50% growth inhibition when compared with the growth control well.

MTT cytotoxicity assay [4] = details: human, Hs27 cells (human foreskin fibroblast cell line)
Procedure: as §1
(§4) Hs27 and HUVEC mammalian cell lines were cultured as mentioned above. Once cell lines were about 80% confluent, cells were counted by a hemacytometer (Hausser Scientific, Horsham, PA, USA) and plated in 96-well microtiter plates at concentrations of 4500 cells per well for Hs27 and 2000 cells per well for HUVEC. Cells were allowed to attach overnight. […] The final concentration of DMSO was ensured to be around 1% in all experiments. Cells were incubated with studied compounds for 72 h at 37 °C and 5% CO2. After incubation, 20 µL of MTT solution in PBS (4 mg/mL) was added to all wells and incubated further for 3 h at 37 °C. Formed formazan crystals were dissolved in 150 µL DMSO, and absorbance was measured using an Asys UVM340 multi-well plate reader at λ = 540 nm. Cytotoxicity was determined compared to drug-free control. All experiments were performed in biological triplicates.

[5] = tested on: Hs27 cells (human foreskin fibroblast cell line); assay: MTT cytotoxicity assay
Procedure: as §1, §4

MTT cytotoxicity assay [6] = details: human
Procedure: as §1, §4

[7] = tested on: HUVEC cells (human umbilical venous endothelial primary cells); assay: MTT cytotoxicity assay
Procedure: as §1, §4

C. albicans SC5314 = assay: Membrane permeabilization assay by propidium iodide uptake (flow cytometry, fluorescence microscopy); format: cell-based, Candida albicans
Procedure: Suspensions of C. albicans SC5314 were prepared by taking one loop of pure culture growth from 24 h YPD agar plates into RPMI 1640 medium and adjusting optical density to 0.1 at 660 nm wavelength. […] The cell suspensions were then treated for 0.5, 2, 4, 6, and 24 h at 37 °C with continuous agitation (180 rpm). The cells were then centrifuged and resuspended in 200 µL of PBS buffer (pH 7.4). Subsequently, cells were treated with propidium iodide (1 mg/mL, final concentration) and incubated for 30 min at room temperature in the dark. Cellular fluorescence was visualized using lens 20×, using Olympus Fluorescence Microscope BX60 (Olympus, Tokyo, Japan). The images were also post-processed utilizing cell Sens program. The fluorescence intensity emitted by DNA-bound propidium iodide was measured using a flow cytometer (Merck Millipore guava easyCyte 8, Darmstadt, Germany). Data were obtained from at least two independent experiments.

[8] = in vivo; cited from earlier work
Procedure: Fluconazole is water-soluble, safe for patients even at a high daily dose ([…]), can be applied either intravenously or orally, and has a beneficial pharmacokinetic profile and broad spectrum of activity.

C[C@@H]1[C@H](O)[C@@H](C)/C=C/C=C/C=C/C=C/C=C/C=C/C=C/[C@H](O[C@@H]2O[C@H](C)[C@@H](O)[C@H](N)[C@@H]2O)C[C@@H]2O[C@](O)(C[C@@H](O)C[C@@H](O)[C@H](O)CC[C@@H](O)C[C@@H](O)CC(=O)O[C@H]1C)C[C@H](O)[C@H]2C(=O)O [Amphotericin B (AmpB), Amphotericin B, reference compound]
< 0.1 µM: MFC (Candida albicans 138) | MIC50 (Candida albicans 138; pH 7) | MIC90 (Candida albicans 138; pH 7) | MFC (Candida albicans 190) | MIC50 (Candida albicans 190; pH 7) | MIC90 (Candida albicans 190; pH 7) | MFC (Candida albicans 247) | MIC50 (Candida albicans 247; pH 7) | MIC90 (Candida albicans 247; pH 7) | MFC (Candida albicans 48) | MIC50 (Candida albicans 48; pH 7) | MIC90 (Candida albicans 48; pH 7) | MFC (Candida albicans 574) | MIC50 (Candida albicans 574; pH 7) | MIC90 (Candida albicans 574; pH 7) | MFC (Candida albicans 604) | MIC50 (Candida albicans 604; pH 7) | MIC90 (Candida albicans 604; pH 7) | MFC [1] | MIC50 [1] | MIC90 [1] | MFC (Candida albicans B3) | MIC50 (Candida albicans B3; pH 7) | MIC90 (Candida albicans B3; pH 7) | MFC (Candida albicans B4) | MIC50 (Candida albicans B4; pH 7) | MIC90 (Candida albicans B4; pH 7) | MFC (Candida albicans Gu4) | MIC50 (Candida albicans Gu4; pH 7) | MIC90 (Candida albicans Gu4; pH 7) | MFC (Candida albicans Gu5) | MIC50 (Candida albicans Gu5; pH 7) | MIC90 (Candida albicans Gu5; pH 7) | MFC (Candida albicans SC 5314) | MIC50 (Candida albicans SC 5314) | MIC90 (Candida albicans SC 5314) | MFC [2] | MIC50 [2] | MIC90 [2] | MFC (Candida krusei DSM 11226) | MIC50 (Candida krusei DSM 11226) | MIC90 (Candida krusei DSM 11226) | MIC [3]

OC(Cn1cncn1)(Cn1cncn1)c1ccc(F)cc1F [FLC, fluconazole]
15 µM: MIC90 (Candida albicans B3; pH 7)
2,83%: Dead (%), PI uptake by flow cytometry (C. albicans SC5314; SC5314, 6 h)
> 100 µM: IC50 at 72 h (MTT cytotoxicity assay [4]) | IC50 at 72 h (MTT cytotoxicity assay [6])
70 µM: MIC50 (Candida krusei DSM 11226)
> 250 µM: MIC90 (Candida albicans 138; pH 7) | MIC90 (Candida albicans 190; pH 7) | MIC90 (Candida albicans 247; pH 7) | MIC90 (Candida albicans 48; pH 7) | MIC90 (Candida albicans 574; pH 7) | MIC90 (Candida albicans 604; pH 7) | MIC90 (Candida albicans Gu5; pH 7)
>100 µM: In vitro cytotoxicity IC90 ± SEM [5] | In vitro cytotoxicity IC90 ± SEM [7]
No symptoms of cell membrane disruption: cell membrane disruption (PI uptake), in words (C. albicans SC5314; C. albicans SC5314, 8 × MIC (62 µM), 4 or 6 h)
250 µM: MIC90 [2]
97,5%: Live (%), PI uptake by flow cytometry (C. albicans SC5314; SC5314, 4 h)
31 µM: MIC90 (Candida albicans Gu4; pH 7)
97,2%: Live (%), PI uptake by flow cytometry (C. albicans SC5314; SC5314, 6 h)
< 8 µM: MIC50 [1] | MIC90 [1] | MIC50 (Candida albicans SC 5314) | MIC90 (Candida albicans SC 5314)
1%: incidence rate of azole-induced liver injury [8]
2,50%: Dead (%), PI uptake by flow cytometry (C. albicans SC5314; SC5314, 4 h)
125 µM: MIC90 (Candida krusei DSM 11226)
62 µM: MIC90 (Candida albicans B4; pH 7) | MIC50 [2]
